Experimental data taken from ChEMBL document CHEMBL6134864, “Discovery of FLT3-ITD Inhibitor Clifutinib: A Novel Biphenylacetylene Urea Derivative in Clinical Trials for the Treatment of Relapsed/Refractory FLT3-ITD+ Acute Myeloid Leukemia” (J Med Chem, 2025).

Tests used:
[1] = Half life in rat plasma at 5 mg/kg, po measured up to 24 hrs by LC-MS/MS analysis; format: ADME, organism-based
[2] = Cmax in mouse plasma at 2 mg/kg, iv measured up to 24 hrs by LC-MS/MS analysis; format: ADME, organism-based
[3] = AUC last in mouse plasma at 2 mg/kg, iv measured up to 24 hrs by LC-MS/MS analysis; format: ADME, organism-based
[4] = Half life in mouse plasma at 2 mg/kg, iv measured up to 24 hrs by LC-MS/MS analysis; format: ADME, organism-based
[5] = Half life in mouse plasma at 10 mg/kg, po measured up to 24 hrs by LC-MS/MS analysis; format: ADME, organism-based
[6] = Tmax in dog plasma at 1 mg/kg, iv measured up to 24 hrs by LC-MS/MS analysis; format: ADME, organism-based, Canis lupus familiaris
[7] = AUC last in dog plasma at 1 mg/kg, iv measured up to 24 hrs by LC-MS/MS analysis; format: ADME, organism-based, Canis lupus familiaris
[8] = Volume of distribution at steady state in dog plasma at 1 mg/kg, iv measured up to 24 hrs by LC-MS/MS analysis; format: ADME, organism-based, Canis lupus familiaris; conditions: read-out: Vdss
[9] = Tmax in dog plasma at 5 mg/kg, po measured up to 24 hrs by LC-MS/MS analysis; format: ADME, organism-based, Canis lupus familiaris
[10] = Cmax in dog plasma at 5 mg/kg, po measured up to 24 hrs by LC-MS/MS analysis; format: ADME, organism-based, Canis lupus familiaris
[11] = Clearance in monkey plasma at 1 mg/kg, iv measured up to 24 hrs by LC-MS/MS analysis; format: ADME, organism-based, Macaca mulatta; conditions: rhesus monkey
[12] = Tmax in monkey plasma at 5 mg/kg, po measured up to 24 hrs by LC-MS/MS analysis; format: ADME, organism-based, Macaca mulatta; conditions: rhesus monkey
[13] = AUC last in monkey plasma at 5 mg/kg, po measured up to 24 hrs by LC-MS/MS analysis; format: ADME, organism-based, Macaca mulatta; conditions: rhesus monkey, in vivo
[14] = Half life in monkey plasma at 5 mg/kg, po measured up to 24 hrs by LC-MS/MS analysis; format: ADME, organism-based, Macaca mulatta; conditions: rhesus monkey
BaF3 [15] = assay: Antiproliferative activity against mouse BaF3 cells harbouring FLT3-ITD assessed as inhibition of cell growth incubated for 72 hrs by celltiter-glo luminescent cell viability assay; format: functional, cell-based; conditions: BaF3, 72 h
BaF3 [16] = assay: Antiproliferative activity against mouse BaF3 cells harbouring FLT3-ITD-D835I mutant assessed as inhibition of cell growth incubated for 72 hrs by celltiter-glo luminescent cell viability assay; format: functional, cell-based; conditions: BaF3, 72 h
BaF3 [17] = assay: Antiproliferative activity against mouse BaF3 cells harbouring FLT3-ITD-N676D mutant assessed as inhibition of cell growth incubated for 72 hrs by celltiter-glo luminescent cell viability assay; format: functional, cell-based; conditions: BaF3, 72 h
BaF3 [18] = assay: Antiproliferative activity against mouse BaF3 cells harbouring FLT3-ITD-Y842H mutant assessed as inhibition of cell growth incubated for 72 hrs by celltiter-glo luminescent cell viability assay; format: functional, cell-based; conditions: BaF3, 72 h
BaF3 [19] = assay: Antiproliferative activity against mouse BaF3 cells harbouring FLT3-ITD-F691L mutant assessed as inhibition of cell growth incubated for 72 hrs by celltiter-glo luminescent cell viability assay; format: functional, cell-based; conditions: BaF3, 72 h
MV4-11 = assay: Induction of apoptosis in human MV4-11 cells harbouring FLT3-ITD mutant measured after 48 to 72 hrs by annexin V and PI staining based flow cytometry analysis; format: functional, cell-based; conditions: dose 1-100 nM, time 48-72 hrs
[20] = system: Receptor-type tyrosine-protein kinase FLT3 (Homo sapiens), P36888 [UNDEFINED MUTATION]; assay: Inhibition of FLT3 in human MV4-11 cells harbouring FLT3-ITD mutant assessed as inhibition of FLT3 phosphorylation level measured after 2 hrs by Western blot analysis; format: cell-based; conditions: dose 1-1000 nM
[21] = system: Receptor-type tyrosine-protein kinase FLT3 (Homo sapiens), P36888 [UNDEFINED MUTATION]; assay: Inhibition of FLT3 in human MV4-11 cells harbouring FLT3-ITD mutant assessed as inhibition of AKT phosphorylation level measured after 2 hrs by Western blot analysis; format: cell-based; conditions: dose 1-1000 nM
[22] = target: Proto-oncogene tyrosine-protein kinase receptor Ret (Homo sapiens, UniProt P07949, Y791F); assay: Inhibition of human RET Y791F mutant by biochemical kinase binding assay
[23] = target: Discoidin domain-containing receptor 2 (Homo sapiens, UniProt Q16832, T654M); assay: Inhibition of human DDR2 T654M mutant by biochemical kinase binding assay
[24] = target: Mast/stem cell growth factor receptor Kit (Homo sapiens, UniProt P10721, T670I/V559D); assay: Inhibition of human KIT V559D/T670I mutant by biochemical kinase binding assay
[25] = target: Mast/stem cell growth factor receptor Kit (Homo sapiens, UniProt P10721, Y823D); assay: Inhibition of human KIT Y823D mutant by biochemical kinase binding assay
Cytochrome P450 2C8 = Cytochrome P450 2C8 (Homo sapiens, UniProt P10632); assay: Inhibition of CYP2C8 in human liver microsomes by UPLC-MS/MS analysis; format: ADME, Microsome
Cytochrome P450 2C9 = Cytochrome P450 2C9 (Homo sapiens, UniProt P11712); assay: Inhibition of CYP2C9 in human liver microsomes by UPLC-MS/MS analysis; format: ADME, Microsome
Cytochrome P450 3A4 = Cytochrome P450 3A4 (Homo sapiens, UniProt P08684); assay: Inhibition of CYP3A4 in human liver microsomes by UPLC-MS/MS analysis; format: ADME, Microsome
[26] = Antitumor activity against human […] cells harbouring FLT3-ITD xenografted in NOD/SCID mouse model assessed as tumor regression rate at 20 mg/kg/day, po measured for 8 days by caliper analysis relative to control; format: functional, MV4-11; conditions: time 8 day
[27] = Toxicity in NOD/SCID mouse assessed as observable signs of toxicity at 0.5 to 4.5 mg/kg/day, po administered for 21 days and measured for 31 days post dose; format: organism-based; conditions: in vivo, 504 h, dose 0.5-4.5 mg/kg/day, time 21 day
MOLM-13 = assay: Antitumor activity against human MOLM-13 cells xenografted in NOD/SCID mouse model assessed as tumor growth inhibition at 4.5 mg/kg/day, po by caliper analysis relative to control; format: functional; conditions: read-out: TGI
[28] = Tmax in NOD/SCID mouse tumor xenografted with human MV4-11 cells at 0.5 mg/kg, po measured up to 24 hrs by LC-MS/MS analysis; format: ADME, organism-based, Neoplasm
[29] = AUC (0 to t) in NOD/SCID mouse plasma xenografted with human MV4-11 cells at […], po measured up to 24 hrs by LC-MS/MS analysis; format: ADME, organism-based; conditions: dose 1.5 mg/kg
A2780 = assay: cells; conditions: Homo sapiens, A2780, 72 h
Description: Antiproliferative activity against human A2780 cells assessed as inhibition of cell growth incubated for 72 hrs by celltiter-glo luminescent cell viability assay

COLO 205 = assay: cells; conditions: Homo sapiens, COLO 205, 72 h
Description: Antiproliferative activity against human COLO 205 cells assessed as inhibition of cell growth incubated for 72 hrs by celltiter-glo luminescent cell viability assay

CAKI-1 = assay: cells; conditions: Homo sapiens, CAKI-1, 72 h
Description: Antiproliferative activity against human CAKI-1 cells assessed as inhibition of cell growth incubated for 72 hrs by celltiter-glo luminescent cell viability assay

BaF3 [30] = assay: cells; conditions: Mus musculus, BaF3, 72 h
BaF3 [31] = assay: cells; conditions: Mus musculus, BaF3, 72 h; remark: listed apart in the source
Description: Antiproliferative activity against mouse BaF3 cells harbouring FLT3-D83HY mutant assessed as inhibition of cell growth incubated for 72 hrs by celltiter-glo luminescent cell viability assay

Sequence of Receptor-type tyrosine-protein kinase FLT3 (Homo sapiens), P36888 [UNDEFINED MUTATION] (P36888 whole entry, looked up, stated change not applied): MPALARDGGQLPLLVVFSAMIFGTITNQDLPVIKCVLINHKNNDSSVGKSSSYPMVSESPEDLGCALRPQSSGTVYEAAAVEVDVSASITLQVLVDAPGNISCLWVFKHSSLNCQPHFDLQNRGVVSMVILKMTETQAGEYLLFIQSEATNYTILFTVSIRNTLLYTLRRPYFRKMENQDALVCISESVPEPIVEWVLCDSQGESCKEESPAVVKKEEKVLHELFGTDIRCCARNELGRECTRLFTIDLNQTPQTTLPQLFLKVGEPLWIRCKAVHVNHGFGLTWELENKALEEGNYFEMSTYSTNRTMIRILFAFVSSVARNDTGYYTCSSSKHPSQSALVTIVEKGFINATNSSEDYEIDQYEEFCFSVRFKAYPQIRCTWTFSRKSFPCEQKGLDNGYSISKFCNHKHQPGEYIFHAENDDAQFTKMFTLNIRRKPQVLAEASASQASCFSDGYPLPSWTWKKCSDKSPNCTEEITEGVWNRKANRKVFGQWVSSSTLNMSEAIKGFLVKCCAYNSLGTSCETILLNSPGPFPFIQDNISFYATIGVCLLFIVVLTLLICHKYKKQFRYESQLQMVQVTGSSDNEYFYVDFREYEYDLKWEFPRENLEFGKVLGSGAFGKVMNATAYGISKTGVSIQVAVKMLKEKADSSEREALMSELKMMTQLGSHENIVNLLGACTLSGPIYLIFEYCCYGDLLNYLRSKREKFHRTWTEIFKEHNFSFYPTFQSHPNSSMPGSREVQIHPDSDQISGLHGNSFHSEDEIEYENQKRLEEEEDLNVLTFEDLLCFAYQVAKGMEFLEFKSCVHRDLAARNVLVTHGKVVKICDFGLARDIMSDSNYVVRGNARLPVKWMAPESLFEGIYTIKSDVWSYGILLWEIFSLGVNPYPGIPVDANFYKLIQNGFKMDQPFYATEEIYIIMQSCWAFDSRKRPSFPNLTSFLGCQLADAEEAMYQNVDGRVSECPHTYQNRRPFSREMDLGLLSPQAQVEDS
Sequence of Mast/stem cell growth factor receptor Kit (Homo sapiens, UniProt P10721, Y823D) (P10721 26-976 Y823D limits assumed): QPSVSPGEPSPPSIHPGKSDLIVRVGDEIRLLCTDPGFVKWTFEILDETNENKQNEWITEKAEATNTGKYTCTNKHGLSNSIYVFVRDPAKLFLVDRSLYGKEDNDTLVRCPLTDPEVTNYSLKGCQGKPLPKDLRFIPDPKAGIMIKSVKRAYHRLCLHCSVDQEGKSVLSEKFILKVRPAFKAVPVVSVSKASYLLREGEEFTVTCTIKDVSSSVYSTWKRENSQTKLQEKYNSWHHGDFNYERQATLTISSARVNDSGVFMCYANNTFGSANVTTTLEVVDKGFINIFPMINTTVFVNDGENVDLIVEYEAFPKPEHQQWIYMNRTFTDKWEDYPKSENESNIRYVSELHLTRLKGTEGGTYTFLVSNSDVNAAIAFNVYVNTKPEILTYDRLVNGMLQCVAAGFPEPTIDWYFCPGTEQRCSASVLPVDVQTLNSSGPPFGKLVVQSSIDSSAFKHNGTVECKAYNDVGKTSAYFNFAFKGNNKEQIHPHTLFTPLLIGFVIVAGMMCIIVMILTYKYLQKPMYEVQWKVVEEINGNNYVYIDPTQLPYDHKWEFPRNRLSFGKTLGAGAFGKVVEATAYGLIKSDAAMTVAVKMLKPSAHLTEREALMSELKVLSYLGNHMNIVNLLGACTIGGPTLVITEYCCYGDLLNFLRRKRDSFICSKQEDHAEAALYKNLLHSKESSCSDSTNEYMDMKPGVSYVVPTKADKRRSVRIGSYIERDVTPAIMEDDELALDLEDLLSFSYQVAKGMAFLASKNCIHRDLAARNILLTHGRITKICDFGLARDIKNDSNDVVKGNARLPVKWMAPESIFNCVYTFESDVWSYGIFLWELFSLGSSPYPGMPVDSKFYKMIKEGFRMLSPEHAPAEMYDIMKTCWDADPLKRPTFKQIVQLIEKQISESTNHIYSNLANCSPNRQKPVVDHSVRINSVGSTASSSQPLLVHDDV
Sequence of Mast/stem cell growth factor receptor Kit (Homo sapiens, UniProt P10721, T670I/V559D) (P10721 26-976 V559D/T670I limits assumed): as the sequence (P10721 26-976 Y823D limits assumed) above, with V534D, T645I, D798Y counted along it
Sequence of Proto-oncogene tyrosine-protein kinase receptor Ret (P07949 29-1114 Y791F limits assumed): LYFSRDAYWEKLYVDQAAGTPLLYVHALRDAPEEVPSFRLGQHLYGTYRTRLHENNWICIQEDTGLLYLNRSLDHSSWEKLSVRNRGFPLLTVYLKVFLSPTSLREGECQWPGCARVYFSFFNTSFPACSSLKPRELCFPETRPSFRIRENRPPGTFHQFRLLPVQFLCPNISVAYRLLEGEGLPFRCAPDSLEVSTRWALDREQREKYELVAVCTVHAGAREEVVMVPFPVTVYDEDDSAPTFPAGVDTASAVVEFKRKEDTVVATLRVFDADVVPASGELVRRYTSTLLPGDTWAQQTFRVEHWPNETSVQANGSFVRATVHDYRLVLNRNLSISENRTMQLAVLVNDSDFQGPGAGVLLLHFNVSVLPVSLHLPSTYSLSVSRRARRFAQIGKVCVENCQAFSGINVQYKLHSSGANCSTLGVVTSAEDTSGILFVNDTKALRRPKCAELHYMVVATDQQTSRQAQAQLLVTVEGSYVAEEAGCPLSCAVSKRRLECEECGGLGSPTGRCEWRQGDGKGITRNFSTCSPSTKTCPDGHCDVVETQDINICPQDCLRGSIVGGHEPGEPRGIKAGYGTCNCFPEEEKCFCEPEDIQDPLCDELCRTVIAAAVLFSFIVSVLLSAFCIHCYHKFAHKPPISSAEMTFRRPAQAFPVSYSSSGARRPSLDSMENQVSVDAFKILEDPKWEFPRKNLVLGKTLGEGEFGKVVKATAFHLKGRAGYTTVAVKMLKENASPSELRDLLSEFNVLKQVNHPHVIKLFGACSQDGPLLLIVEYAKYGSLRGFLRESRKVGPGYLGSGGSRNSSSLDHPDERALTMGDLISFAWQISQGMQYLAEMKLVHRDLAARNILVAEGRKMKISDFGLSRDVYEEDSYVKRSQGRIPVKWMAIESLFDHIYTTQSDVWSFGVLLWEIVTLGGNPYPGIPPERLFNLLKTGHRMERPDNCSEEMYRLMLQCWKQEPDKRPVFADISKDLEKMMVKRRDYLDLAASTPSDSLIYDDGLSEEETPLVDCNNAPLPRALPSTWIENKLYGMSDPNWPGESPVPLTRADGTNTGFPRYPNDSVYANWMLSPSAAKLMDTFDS
Sequence of Cytochrome P450 2C9 (P11712 whole entry): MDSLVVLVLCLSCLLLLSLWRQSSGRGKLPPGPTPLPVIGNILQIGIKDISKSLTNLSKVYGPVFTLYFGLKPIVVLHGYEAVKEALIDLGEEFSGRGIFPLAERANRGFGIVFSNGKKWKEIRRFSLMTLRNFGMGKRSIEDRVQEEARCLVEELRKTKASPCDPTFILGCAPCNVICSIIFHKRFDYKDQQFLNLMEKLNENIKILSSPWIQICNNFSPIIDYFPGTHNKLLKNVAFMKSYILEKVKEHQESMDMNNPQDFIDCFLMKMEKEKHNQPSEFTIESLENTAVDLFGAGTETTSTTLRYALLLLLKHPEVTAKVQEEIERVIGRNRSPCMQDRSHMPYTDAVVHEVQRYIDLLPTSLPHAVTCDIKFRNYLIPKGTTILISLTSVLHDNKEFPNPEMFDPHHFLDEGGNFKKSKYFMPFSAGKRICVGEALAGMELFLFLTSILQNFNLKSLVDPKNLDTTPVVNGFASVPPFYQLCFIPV
Sequence of Discoidin domain-containing receptor 2 (Q16832 22-855 T654M limits assumed): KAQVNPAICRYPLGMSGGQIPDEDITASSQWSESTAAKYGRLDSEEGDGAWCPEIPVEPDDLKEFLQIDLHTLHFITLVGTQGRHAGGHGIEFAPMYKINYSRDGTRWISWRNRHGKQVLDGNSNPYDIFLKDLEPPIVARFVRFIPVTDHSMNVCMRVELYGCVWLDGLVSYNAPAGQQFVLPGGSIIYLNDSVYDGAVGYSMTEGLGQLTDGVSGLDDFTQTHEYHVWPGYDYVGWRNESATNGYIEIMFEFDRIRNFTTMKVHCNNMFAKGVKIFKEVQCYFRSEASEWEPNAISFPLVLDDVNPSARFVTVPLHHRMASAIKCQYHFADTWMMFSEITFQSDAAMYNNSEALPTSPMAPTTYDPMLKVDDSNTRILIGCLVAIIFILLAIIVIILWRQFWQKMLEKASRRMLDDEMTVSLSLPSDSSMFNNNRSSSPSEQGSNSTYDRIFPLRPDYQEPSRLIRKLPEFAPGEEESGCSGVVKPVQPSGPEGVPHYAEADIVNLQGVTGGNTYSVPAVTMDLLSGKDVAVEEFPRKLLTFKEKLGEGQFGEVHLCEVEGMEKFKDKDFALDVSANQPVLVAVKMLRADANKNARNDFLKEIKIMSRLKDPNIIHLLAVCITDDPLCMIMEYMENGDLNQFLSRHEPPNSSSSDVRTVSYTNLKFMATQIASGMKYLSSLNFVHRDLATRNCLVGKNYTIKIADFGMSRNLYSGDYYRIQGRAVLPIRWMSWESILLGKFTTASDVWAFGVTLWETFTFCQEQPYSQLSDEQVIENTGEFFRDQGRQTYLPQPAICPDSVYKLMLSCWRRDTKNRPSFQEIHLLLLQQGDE
Sequence of Cytochrome P450 3A4 (P08684 whole entry): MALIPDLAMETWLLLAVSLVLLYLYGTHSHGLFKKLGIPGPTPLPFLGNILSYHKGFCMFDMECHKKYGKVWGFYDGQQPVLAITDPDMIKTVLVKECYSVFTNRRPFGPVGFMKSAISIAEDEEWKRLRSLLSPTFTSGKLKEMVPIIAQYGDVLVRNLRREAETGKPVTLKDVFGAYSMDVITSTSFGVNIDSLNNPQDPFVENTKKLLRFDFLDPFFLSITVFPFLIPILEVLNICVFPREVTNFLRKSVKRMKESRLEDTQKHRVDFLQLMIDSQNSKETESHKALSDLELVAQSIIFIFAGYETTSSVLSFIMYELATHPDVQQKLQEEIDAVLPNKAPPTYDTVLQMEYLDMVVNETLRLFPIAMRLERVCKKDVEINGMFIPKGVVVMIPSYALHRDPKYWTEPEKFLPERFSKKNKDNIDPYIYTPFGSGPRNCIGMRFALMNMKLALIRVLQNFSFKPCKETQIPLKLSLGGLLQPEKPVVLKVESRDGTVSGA

half-life [1]: 4.45 h
Cmax [2]: 1820 ng/mL
AUC(0-t) at 24 h [3]: 1740 ng·h/mL
half-life [4]: 1.17 h
half-life [5]: 1.73 h
Tmax [6]: 4.98 min
AUC(0-t) at 24 h [7]: 1290 ng·h/mL
Vd [8]: 5.08 L/kg
Tmax [9]: 1.67 h
Cmax [10]: 520 ng/mL
clearance [11]: 1.35 mL/min/kg
Tmax [12]: 4 h
AUClast [13]: 10800 ng·h/mL
half-life [14]: 8.94 h
IC50 (BaF3 [15]): 0.9 nM
IC50 (BaF3 [16]): 302 nM
IC50 (BaF3 [17]): 6.9 nM
IC50 (BaF3 [18]): 38 nM
IC50 (BaF3 [19]): 154 nM
inhibition [20]: Dose-dependent-effect
inhibition [21]: Dose-dependent-effect
IC50 [22]: 119 nM
IC50 [23]: 422 nM
IC50 [24]: 283 nM
IC50 [25]: 283 nM
IC50 (Cytochrome P450 2C8): > 33300 nM
IC50 (Cytochrome P450 2C9): > 33300 nM
IC50 (Cytochrome P450 3A4): > 33300 nM
Tmax [28]: 3 h
AUC(0-t) at 24 h [29]: 208 ng·h/mL
IC50 (A2780): 7200 nM
IC50 (COLO 205): > 10000 nM
IC50 (CAKI-1): > 10000 nM
IC50 (BaF3 [30]): 74.7 nM
IC50 (BaF3 [31]): 10.9 nM
SMILES: CC(C)(C)c1cc(NC(=O)Nc2ccc(C#Cc3ccc(OCCCN4CCOCC4)cc3)cc2)no1
Activity (MV4-11): Dose-dependent-effect
Activity [26]: 85.4%
Activity [27]: Non-toxic
inhibition in vivo at 4.5 mg/kg/day (MOLM-13): 94%
